Results on 21 compounds are retold here after US20240254103A9, “NOVEL PYRIMIDINE DERIVATIVE, AND COMPOSITION FOR PREVENTING OR TREATING NEURODEGENERATIVE DISEASES AND CANCER, COMPRISING SAME” (WHAN IN PHARMACEUTICAL CO., LTD., priority 2020, published 2024).

Where only a bound is given, the exact number is not on record here.

In the assay the target is T1, wild-type LRRK2 (Homo sapiens, UniProt Q5S007).
T1 construct: DNA tag for qPCR detection (not a peptide; the protein part that carries it is not described); made in house; host or cells: HEK 293 cells (the same paragraph also describes T7 phage grown in E. coli BL21)
Briefly: Inhibitory activity against LRRK2: competition binding to ligand-affinity beads, DNA-tagged kinase quantitated by qPCR. Particulars: % of ctrl; for remaining binding at 0.01 µM: 10 nM compound, read-out: LRRK2(WT) Remaining kinase activity(%) at 10 nM; for remaining binding at 0.05 µM: 50 nM compound, read-out: LRRK2(WT) Remaining kinase activity(%) at 50 nM. The procedure:
Representative compounds synthesized in Example 1 were assayed for inhibitory activity against wild-type LRRK2 and mutant LRRK2 (G2019S), and the results are summarized in Tables 2 and 3. In brief, a T7 phase strain carrying the wild-type kinase consisting of amino acid residues from H970 to E2527 of human-derived LRRK2 (Accession no. NP_940980.3) or a T7 phase strain carrying the G2019S mutation kinase was infected into E. coli strain BL21 which was then grown until log phase. After infection with T7 phases (multiplicity of infection=0.4), the cells were cultured at 32° C. for 90-150 minutes while shaking. Then, E. coli lysates were centrifuged (6,000×g) and the supernatant was filtered through a 0.2-μm filter. The kinases were produced in HEK 293 cells. In this regard, DNA was tagged to obtain DNA-tagged kinases for qPCR detection. For use in analyzing the kinases, affinity resins were prepared by treating streptavidin-coated magnetic beads with biotinylated small molecule ligands at room temperature for 30 minutes. Then, the liganded beads were blocked with an excess of biotin and washed with a blocking buffer (SeaBlock (Pierce), 1% BSA, 0.05% Tween 20, 1 mM DTT) to remove unbound ligands and thus to reduce the binding of non-specific phages. […] After one hour of incubation, the affinity beads were washed with a wash buffer (1×PBS, 0.05% Tween 20), resuspended in an elution buffer (1×PBS, 0.05% Tween 20, 0.5 μM non-biotinylated affinity ligand), and incubated at room temperature for 30 minutes while shaking. Afterwards, concentrations of wild-type LRRK2 and mutant LRRK2 (G2019S) in the eluted samples were quantitated by qPCR. Activity values are expressed as percentages relative to the control (% of ctrl). The compounds used in the activity assay were prepared into 40× stocks in 100% DMSO. The stocks were directly diluted during analysis procedures.
Table 2 includes inhibitory activities of the representative compounds of the present disclosure at 100 nM against wild-type LRRK2 and mutant LRRK2 (G2019S) while Table 3 includes inhibitory activities of the representative compounds at 10 nM and 50 nM against wild-type LRRK2. (+++ less than 10%; ++ less than 30%; + less than 50%; −50% or higher)
(Quantitative PCR measures a nucleic acid by following its amplification.)

T1 sequence (Q5S007 970-2527): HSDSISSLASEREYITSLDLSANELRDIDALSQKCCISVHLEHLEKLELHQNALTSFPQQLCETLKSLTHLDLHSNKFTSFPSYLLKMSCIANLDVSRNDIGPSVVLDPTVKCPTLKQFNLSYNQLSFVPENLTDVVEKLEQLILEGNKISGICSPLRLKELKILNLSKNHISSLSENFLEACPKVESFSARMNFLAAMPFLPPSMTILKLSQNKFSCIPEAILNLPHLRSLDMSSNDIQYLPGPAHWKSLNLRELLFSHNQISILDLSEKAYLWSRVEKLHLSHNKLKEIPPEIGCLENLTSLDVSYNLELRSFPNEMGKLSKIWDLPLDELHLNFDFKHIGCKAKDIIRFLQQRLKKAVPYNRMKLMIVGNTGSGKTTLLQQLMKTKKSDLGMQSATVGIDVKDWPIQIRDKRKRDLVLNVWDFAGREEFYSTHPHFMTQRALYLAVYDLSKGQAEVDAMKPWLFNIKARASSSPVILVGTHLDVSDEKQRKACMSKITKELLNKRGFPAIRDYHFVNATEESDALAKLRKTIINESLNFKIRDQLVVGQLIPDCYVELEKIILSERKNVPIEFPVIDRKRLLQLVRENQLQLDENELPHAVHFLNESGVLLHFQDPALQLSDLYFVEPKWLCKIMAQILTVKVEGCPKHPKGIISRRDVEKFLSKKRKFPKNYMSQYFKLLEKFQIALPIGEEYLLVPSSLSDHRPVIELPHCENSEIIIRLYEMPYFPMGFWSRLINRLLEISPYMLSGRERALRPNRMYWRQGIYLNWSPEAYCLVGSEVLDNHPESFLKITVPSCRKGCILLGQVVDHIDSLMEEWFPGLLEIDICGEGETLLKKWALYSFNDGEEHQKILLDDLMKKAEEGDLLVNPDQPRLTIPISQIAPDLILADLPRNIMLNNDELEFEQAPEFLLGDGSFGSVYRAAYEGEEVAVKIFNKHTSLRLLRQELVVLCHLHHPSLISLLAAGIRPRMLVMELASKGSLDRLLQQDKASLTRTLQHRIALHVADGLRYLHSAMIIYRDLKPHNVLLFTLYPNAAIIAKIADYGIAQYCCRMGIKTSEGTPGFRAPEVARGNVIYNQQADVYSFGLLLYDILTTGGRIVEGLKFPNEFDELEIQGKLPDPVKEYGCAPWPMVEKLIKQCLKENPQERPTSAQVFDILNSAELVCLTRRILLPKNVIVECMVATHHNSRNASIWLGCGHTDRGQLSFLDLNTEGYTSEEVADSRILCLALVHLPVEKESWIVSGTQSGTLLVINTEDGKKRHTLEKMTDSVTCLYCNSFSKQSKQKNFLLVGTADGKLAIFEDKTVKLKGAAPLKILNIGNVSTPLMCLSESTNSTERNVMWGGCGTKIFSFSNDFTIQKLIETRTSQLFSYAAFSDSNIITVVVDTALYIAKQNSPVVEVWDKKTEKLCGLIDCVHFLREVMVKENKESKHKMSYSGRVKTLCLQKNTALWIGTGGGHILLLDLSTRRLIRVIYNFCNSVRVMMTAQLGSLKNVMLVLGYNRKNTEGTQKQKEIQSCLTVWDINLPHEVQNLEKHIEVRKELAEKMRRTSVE

For `COc1cc(C(=O)NC2CCN(C)CC2)ccc1Nc1ncc(Cl)c(-c2cnn(C(C)C)c2)n1` [Compound 60, 4-((5-chloro-4-(1-isopropyl-1H-pyrazol-4-yl)pyrimidin-2-yl)amino)-3-methoxy-N-(1-methylpiperidin-4-yl)benzamide], the remaining binding at 0.01 µM is less than 50% and the remaining binding at 0.05 µM was less than 10%.

`COc1cc(C(=O)N2CCN(C)CC2)ccc1Nc1ncc(Cl)c(-c2cnn(C)c2)n1` [Compound 61, (4-((5-chloro-4-(1-methyl-1H-pyrazol-4-yl)pyrimidin-2-yl)amino)-3-methoxyphenyl)(4-methylpiperazin-1-yl)methanone]: the remaining binding at 0.01 µM was less than 50% and the remaining binding at 0.05 µM was less than 30%.

As for `COc1cc(C(=O)N2CCN(C)CC2)ccc1Nc1ncc(Cl)c(-c2cnn(C(C)C)c2)n1` [Compound 62, (4-((5-chloro-4-(1-isopropyl-1H-pyrazol-4-yl)pyrimidin-2-yl)amino)-3-methoxyphenyl)(4-methylpiperazin-1-yl)methanone], the remaining binding at 0.01 µM was less than 30% and the remaining binding at 0.05 µM was less than 10%.

Consider `COc1cc(C(=O)N2CCN(C(C)C)CC2)ccc1Nc1ncc(Cl)c(-c2cnn(C(C)C)c2)n1` [Compound 64, (4-((5-chloro-4-(1-isopropyl-1H-pyrazol-4-yl)pyrimidin-2-yl)amino)-3-methoxyphenyl)(4-isopropylpiperazin-1-yl)methanone], for which the remaining binding at 0.01 µM is less than 30% and the remaining binding at 0.05 µM was less than 10%.

In the case of `COc1cc(C(=O)N2CCC(C(C)(C)O)CC2)ccc1Nc1ncc(Cl)c(-c2cnn(C(C)C)c2)n1` [Compound 70, (4-((5-chloro-4-(1-isopropyl-1H-pyrazol-4-yl)pyrimidin-2-yl)amino)-3-methoxyphenyl)(4-(2-hydroxypropan-2-yl)piperidin-1-yl)methanone], the remaining binding at 0.01 µM was less than 50% and the remaining binding at 0.05 µM is less than 30%.

As to `COc1cc(C(=O)N2CCC3(CC2)COC3)ccc1Nc1ncc(Cl)c(-c2cnn(C(C)C)c2)n1` [Compound 71, (4-((5-chloro-4-(1-isopropyl-1H-pyrazol-4-yl)pyrimidin-2-yl)amino)-3-methoxyphenyl)(2-oxa-7-azaspiro[3.5]nonan-7-yl)methanone], the remaining binding at 0.01 µM was less than 50% and the remaining binding at 0.05 µM was less than 30%.

Take `COc1cc(C(=O)N2CC(N3CCOCC3)C2)ccc1Nc1ncc(Cl)c(-c2cnn(C(C)C)c2)n1` [Compound 73, (4-((5-chloro-4-(1-isopropyl-1H-pyrazol-4-yl)pyrimidin-2-yl)amino)-3-methoxyphenyl)(3-morpholinoazetidin-1-yl)methanone]: the remaining binding at 0.01 µM was less than 50% and the remaining binding at 0.05 µM was less than 30%.

On to `COc1cc(C(=S)N2CCOCC2)ccc1Nc1ncc(Cl)c(-c2cnn(C(C)C)c2)n1` [Compound 74, (4-((5-chloro-4-(1-isopropyl-1H-pyrazol-4-yl)pyrimidin-2-yl)amino)-3-methoxyphenyl)(morpholino)methanethione], for which the remaining binding at 0.01 µM was less than 50% and the remaining binding at 0.05 µM is less than 10%.

`COc1cc(C(=O)N2CCC(OC)CC2)ccc1Nc1ncc(Cl)c(-c2cnn(C(C)C)c2)n1` [Compound 76, (4-((5-chloro-4-(1-isopropyl-1H-pyrazol-4-yl)pyrimidin-2-yl)amino)-3-methoxyphenyl)(4-methoxypiperidin-1-yl)methanone]: the remaining binding at 0.01 µM was less than 50% and the remaining binding at 0.05 µM is less than 30%.

With `COc1cc(C(=O)N2CCC3(CCOCC3)CC2)ccc1Nc1ncc(Cl)c(-c2cnn(C(C)C)c2)n1` [Compound 77, (4-((5-chloro-4-(1-isopropyl-1H-pyrazol-4-yl)pyrimidin-2-yl)amino)-3-methoxyphenyl)(3-oxa-9-azaspiro[5.5]undecan-9-yl)methanone], the remaining binding at 0.01 µM is less than 50% and the remaining binding at 0.05 µM is less than 30%.

For `COc1cc(C(=O)N2CCN(C(C)=O)CC2)ccc1Nc1ncc(Cl)c(-c2cnn(C(C)C)c2)n1` [Compound 78, 1-(4-(4-((5-chloro-4-(1-isopropyl-1H-pyrazol-4-yl)pyrimidin-2-yl)amino)-3-methoxybenzoyl)piperazin-1-yl)ethan-1-one], the remaining binding at 0.01 µM was less than 50% and the remaining binding at 0.05 µM is less than 10%.

`COc1cc(C(=O)N2CCC(S(C)(=O)=O)CC2)ccc1Nc1ncc(Cl)c(-c2cnn(C(C)C)c2)n1` [Compound 79, (4-((5-chloro-4-(1-isopropyl-1H-pyrazol-4-yl)pyrimidin-2-yl)amino)-3-methoxyphenyl)(4-(methylsulfonyl)piperidin-1-yl)methanone]: the remaining binding at 0.01 µM is less than 50% and the remaining binding at 0.05 µM was less than 10%.

As to `COc1cc(C(=O)NC2CCOCC2)ccc1Nc1ncc(Cl)c(-c2cnn(C(C)C)c2)n1` [Compound 80, 4-((5-chloro-4-(1-isopropyl-1H-pyrazol-4-yl)pyrimidin-2-yl)amino)-3-methoxy-N-(tetrahydro-2H-pyran-4-yl)benzamide], the remaining binding at 0.01 µM is less than 50% and the remaining binding at 0.05 µM is less than 30%.

As to `COc1cc(C(=O)NC2CC2)ccc1Nc1ncc(Cl)c(-c2cnn(C(C)C)c2)n1` [Compound 82, 4-((5-chloro-4-(1-isopropyl-1H-pyrazol-4-yl)pyrimidin-2-yl)amino)-N-cyclopropyl-3-methoxybenzamide], the remaining binding at 0.01 µM is less than 50% and the remaining binding at 0.05 µM is less than 30%.

In the case of `COc1cc(C(=O)N2CCS(=O)(=O)CC2)ccc1Nc1ncc(Cl)c(-c2cnn(C(C)C)c2)n1` [Compound 84, (4-((5-chloro-4-(1-isopropyl-1H-pyrazol-4-yl)pyrimidin-2-yl)amino)-3-methoxyphenyl)(1,1-dioxidothiomorpholino)methanone], the remaining binding at 0.01 µM was less than 50% and the remaining binding at 0.05 µM was less than 30%.

On to `COc1cc(C(=O)N2CCN(C)CC2)ccc1Nc1ncc(Cl)c(-c2cnn(C(C)(C)C)c2)n1` [Compound 85, (4-((4-(1-(tert-butyl)-1H-pyrazol-4-yl)-5-chloropyrimidin-2-yl)amino)-3-methoxyphenyl)(4-methylpiperazin-1-yl)methanone], for which the remaining binding at 0.01 µM is less than 50% and the remaining binding at 0.05 µM was less than 30%.

Consider `COc1cc(C(=O)N2CCN3CCCC3C2)ccc1Nc1ncc(Cl)c(-c2cnn(C(C)C)c2)n1` (stereo not drawn) [Compound 87, (4-((5-chloro-4-(1-isopropyl-1H-pyrazol-4-yl)pyrimidin-2-yl)amino)-3-methoxyphenyl)(hexahydropyrrolo[1,2-a]pyrazin-2(1H)-yl)methanone], for which the remaining binding at 0.01 µM is less than 50% and the remaining binding at 0.05 µM was less than 30%.

For the compound `COc1cc(C(=O)N2CCN(C(C)C)CC2)ccc1Nc1ncc(Cl)c(-c2cnn(C(C)(C)C)c2)n1` [Compound 88, (4-((4-(1-(tert-butyl)-1H-pyrazol-4-yl)-5-chloropyrimidin-2-yl)amino)-3-methoxyphenyl)(4-isopropylpiperazin-1-yl)methanone], the remaining binding at 0.01 µM was less than 50% and the remaining binding at 0.05 µM was less than 10%.

Regarding `COc1cc(C(=O)N2C[C@H]3CC[C@@H](C2)O3)ccc1Nc1ncc(Cl)c(-c2cnn(C(C)C)c2)n1` [Compound 89, ((1R,5S)-8-oxa-3-azabicyclo[3.2.1]octan-3-yl)(4-((5-chloro-4-(1-isopropyl-1H-pyrazol-4-yl)pyrimidin-2-yl)amino)-3-methoxyphenyl)methanone], the remaining binding at 0.01 µM is no less than 50% and the remaining binding at 0.05 µM is less than 30%.

Regarding `COc1cc(C(=O)N2CC3(COC3)C2)ccc1Nc1ncc(Cl)c(-c2cnn(C(C)C)c2)n1` [Compound 90, (4-((5-chloro-4-(1-isopropyl-1H-pyrazol-4-yl)pyrimidin-2-yl)amino)-3-methoxyphenyl)(2-oxa-6-azaspiro[3.3]heptan-6-yl)methanone], the remaining binding at 0.01 µM was no less than 50% and the remaining binding at 0.05 µM is less than 30%.

For `COc1cc(C(=O)NC2CCC(O)CC2)ccc1Nc1ncc(Cl)c(-c2cnn(C(C)C)c2)n1` (stereo not drawn) [Compound 91, 4-((5-chloro-4-(1-isopropyl-1H-pyrazol-4-yl)pyrimidin-2-yl)amino)-N-((1r,4r)-4-hydroxycyclohexyl)-3-methoxybenzamide], the remaining binding at 0.01 µM was no less than 50% and the remaining binding at 0.05 µM was less than 30%.
